Patent US8889671B2, “Compounds and methods for treating bacterial infections” (AstraZeneca AB, priority 2013, dated 2014)
≈ marks a conversion by molar mass, not a printed value. Where two headings read alike, the source gives them in different places.

How the values were obtained:
[1] = biological target: Escherichia coli DNA gyrase A/B tetramer (Escherichia coli (strain K12), UniProt P0AES4+P0AES6); assay: DNA gyrase supercoiling activity fluorescence polarisation assay; assay type: biochemical; details: 0.3 mM ATP
How it was run: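 Relaxed triplex-forming plasmid (130 micrograms/mL) supercoiled by 5 nM gyrase A/B tetramer in Tris-HCl pH 7.5 buffer with 4 mM MgCl2 and 0.3 mM ATP, ~30 min, ambient temperature. Quenched with 5′-BODIPY-FL triplex probe at pH 3.5; fluorescence anisotropy read after 60 min. IC50 by nonlinear regression against two control reactions.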

Klebsiella pneumoniae = assay: Susceptibility testing (MIC) Assay 2, broth microdilution; assay type: cell-based; details: clinical isolate, mucoid, read-out: Kpn MIC
Pseudomonas aeruginosa = assay: as above; assay type: cell-based; details: for MIC: PAO1, read-out: Pae MIC
Haemophilus influenzae = assay: as above; assay type: cell-based; details: ATCC 51907, in vivo strain, read-out: Hin MIC
Escherichia coli = assay: as above; assay type: cell-based; details: K12, read-out: Eco MIC
Staphylococcus aureus = assay: Susceptibility testing (MIC) Assay 1, broth microdilution; assay type: cell-based
Streptococcus pyogenes = assay: as above; assay type: cell-based; details: Streptococcus pyrgenes, in vivo strain, read-out: Spy MIC
Streptococcus pneumoniae = assay: as above; assay type: cell-based
[2] = Eco Gyr FP Mean IC50, E. coli DNA gyrase supercoiling
[3] = ATCC51907, Haemophilus influenzae
[4] = Staphylococcus aureus, Staphylococcus aureus in vivo strain, MSQS, read-out: Sau(d) MIC
[5] = Staphylococcus aureus, in vivo strain, MRQR, read-out: Sau(e) MIC
[6] = Staphylococcus aureus, serum, read-out: Sau(f) MIC
[7] = in vivo strain (footnote b), read-out: Spn(b) MIC
[8] = in vivo strain (footnote c), read-out: Spn(c) MIC

| Structure (SMILES) | IC50 [1, 2] [nM] | MIC (Klebsiella pneumoniae) [µM] | MIC (Pseudomonas aeruginosa) [µM] | MIC (Haemophilus influenzae; [3]) [µM] | MIC (Escherichia coli) [µM] | MIC (Staphylococcus aureus; [4]) [µM] | MIC (Staphylococcus aureus; [5]) [µM] | MIC (Staphylococcus aureus; [6]) [µM] | MIC (Streptococcus pyogenes; Streptococcus pyogenes) [µM] | MIC (Streptococcus pneumoniae; [7]) [µM] | MIC (Streptococcus pneumoniae; [8]) [µM] | IC50 ([1]; E. coli DNA gyrase supercoiling, read-out: Eco Gyr FP Mean IC50) [nM] | Pae MIC (Pseudomonas aeruginosa; PAO1) [µM] | MIC (Haemophilus influenzae) [µM] | MIC (Staphylococcus aureus; Staphylococcus aureus in vivo strain, MSQS, read-out: Sau(d) MIC) [µM] | MIC (Streptococcus pyogenes) [µM] |
| --- | --- | --- | --- | --- | --- | --- | --- | --- | --- | --- | --- | --- | --- | --- | --- | --- |
| C[C@@H]1CN2c3c(cc4c(N5C[C@H](CN=[N+]=[N-])OC5=O)noc4c3F)CC3(C(=O)NC(=O)NC3=O)[C@H]2[C@H](C)O1 [Example 44, (2R,4S,4aS)-8-[(5R)-5-(Azidomethyl)-2-oxo-1,3-oxazolidin-3-yl]-11-fluoro-2,4-dimethyl-1,2,4,4a-tetrahydro-2′H,6H-spiro[1,4-oxazino[4,3-a][1,2]oxazolo[4,5-g]quinoline-5,5′-pyrimidine]-2′,4′,6′(1′H,3′H)-trione] | 530 | > 200 | > 200 | 0.78 (≈ 0.412 µg/mL) | 50 (≈ 26.4 µg/mL) | 0.78 (≈ 0.412 µg/mL) | 3.1 (≈ 1.64 µg/mL) | 3.1 (≈ 1.64 µg/mL) | 0.78 (≈ 0.412 µg/mL) | 0.78 (≈ 0.412 µg/mL) | 1.6 (≈ 0.846 µg/mL) | – | – | – | – | – |
| CSC[C@H]1COC(=O)N1c1noc2c(F)c3c(cc12)CC1(C(=O)NC(=O)NC1=O)[C@H]1[C@H](C)O[C@H](C)CN31 [Example 45] | 260 | 200 (≈ 107 µg/mL) | > 200 | 0.39 (≈ 0.208 µg/mL) | 25 (≈ 13.3 µg/mL) | < 0.2 | 0.39 (≈ 0.208 µg/mL) | 0.78 (≈ 0.416 µg/mL) | 0.39 (≈ 0.208 µg/mL) | 0.39 (≈ 0.208 µg/mL) | 0.55 (≈ 0.293 µg/mL) | – | – | – | – | – |
| C[C@@H]1CN2c3c(cc4c(N5C(=O)OC[C@@H]5CS(C)(=O)=O)noc4c3F)CC3(C(=O)NC(=O)NC3=O)[C@H]2[C@H](C)O1 [Example 46] | 170 | > 200 | > 200 | 0.78 (≈ 0.441 µg/mL) | 100 (≈ 56.6 µg/mL) | 1.6 (≈ 0.905 µg/mL) | 6.2 (≈ 3.51 µg/mL) | 1.6 (≈ 0.905 µg/mL) | 0.39 (≈ 0.221 µg/mL) | 0.78 (≈ 0.441 µg/mL) | 1.6 (≈ 0.905 µg/mL) | – | – | – | – | – |
| C[C@@H]1CN2c3c(cc4c(N5C(=O)OC[C@H]5CN=[N+]=[N-])noc4c3F)CC3(C(=O)NC(=O)NC3=O)[C@H]2[C@H](C)O1 [Example 47, (2R,4S,4aS)-8-((R)-4-(Azidomethyl)-2-oxooxazolidin-3-yl)-11-fluoro-2,4-dimethyl-2,4,4a,6-tetrahydro-1H,1′H-spiro[isoxazolo[4,5-g][1,4]oxazino[4,3-a]quinoline-5,5′-pyrimidine]-2′,4′,6′(3′H)-trione] | 150 | 200 (≈ 106 µg/mL) | > 200 | 0.78 (≈ 0.412 µg/mL) | 25 (≈ 13.2 µg/mL) | < 0.2 | 0.78 (≈ 0.412 µg/mL) | 0.78 (≈ 0.412 µg/mL) | 0.279 (≈ 0.147 µg/mL) | 0.39 (≈ 0.206 µg/mL) | 0.55 (≈ 0.291 µg/mL) | – | – | – | – | – |
| C[C@@H]1CN2c3c(cc4c(N5C(=O)OC[C@@H]5CN=[N+]=[N-])noc4c3F)CC3(C(=O)NC(=O)NC3=O)[C@H]2[C@H](C)O1 [Example 48] | – | >200 | – | – | 200 (≈ 106 µg/mL) | – | 12 (≈ 6.34 µg/mL) | 50 (≈ 26.4 µg/mL) | – | 12 (≈ 6.34 µg/mL) | 12 (≈ 6.34 µg/mL) | > 2100 | >200 | 6.2 (≈ 3.28 µg/mL) | 6.2 (≈ 3.28 µg/mL) | 6.2 (≈ 3.28 µg/mL) |
| CCOC[C@H]1COC(=O)N1c1noc2c(F)c3c(cc12)CC1(C(=O)NC(=O)NC1=O)[C@H]1[C@H](C)O[C@H](C)CN31 [Example 49, (2R,4S,4aS)-8-[(4S)-4-(Ethoxymethyl)-2-oxo-1,3-oxazolidin-3-yl]-11-fluoro-2,4-dimethyl-1,2,4,4a-tetrahydro-2′H,6H-spiro[1,4-oxazino[4,3-a][1,2]oxazolo[4,5-g]quinoline-5,5′-pyrimidine]-2′,4′,6′(1′H,3′H)-trione] | 380 | > 200 | > 200 | 1.6 (≈ 0.85 µg/mL) | 50 (≈ 26.6 µg/mL) | 0.39 (≈ 0.207 µg/mL) | 0.78 (≈ 0.415 µg/mL) | 0.78 (≈ 0.415 µg/mL) | 0.78 (≈ 0.415 µg/mL) | 0.78 (≈ 0.415 µg/mL) | 1.6 (≈ 0.85 µg/mL) | – | – | – | – | – |
| COCCOC[C@H]1COC(=O)N1c1noc2c(F)c3c(cc12)CC1(C(=O)NC(=O)NC1=O)[C@H]1[C@H](C)O[C@H](C)CN31 [Example 50, (2R,4S,4aS)-11-Fluoro-8-{(4S)-4-[(2-methoxyethoxy)methyl]-2-oxo-1,3-oxazolidin-3-yl}-2,4-dimethyl-1,2,4,4a-tetrahydro-2′H,6H-spiro[1,4-oxazino[4,3-a][1,2]oxazolo[4,5-g]quinoline-5,5′-pyrimidine]-2′,4′,6′(1′H,3′H)-trione] | 200 | > 200 | > 200 | 3.1 (≈ 1.74 µg/mL) | 200 (≈ 112 µg/mL) | 1.6 (≈ 0.898 µg/mL) | 3.1 (≈ 1.74 µg/mL) | 1.6 (≈ 0.898 µg/mL) | 1.6 (≈ 0.898 µg/mL) | 1.6 (≈ 0.898 µg/mL) | 1.6 (≈ 0.898 µg/mL) | – | – | – | – | – |
